Data: paper PMC10454575, “A Novel Aniline Derivative from Peganum harmala L. Promoted Apoptosis via Activating PI3K/AKT/mTOR-Mediated Autophagy in Non-Small Cell Lung Cancer Cells” (International Journal of Molecular Sciences, 2023)

Target: T1, CD133 (Homo sapiens, UniProt O43490)
T1 construct: gene PROM1
T1 sequence (O43490 20-865): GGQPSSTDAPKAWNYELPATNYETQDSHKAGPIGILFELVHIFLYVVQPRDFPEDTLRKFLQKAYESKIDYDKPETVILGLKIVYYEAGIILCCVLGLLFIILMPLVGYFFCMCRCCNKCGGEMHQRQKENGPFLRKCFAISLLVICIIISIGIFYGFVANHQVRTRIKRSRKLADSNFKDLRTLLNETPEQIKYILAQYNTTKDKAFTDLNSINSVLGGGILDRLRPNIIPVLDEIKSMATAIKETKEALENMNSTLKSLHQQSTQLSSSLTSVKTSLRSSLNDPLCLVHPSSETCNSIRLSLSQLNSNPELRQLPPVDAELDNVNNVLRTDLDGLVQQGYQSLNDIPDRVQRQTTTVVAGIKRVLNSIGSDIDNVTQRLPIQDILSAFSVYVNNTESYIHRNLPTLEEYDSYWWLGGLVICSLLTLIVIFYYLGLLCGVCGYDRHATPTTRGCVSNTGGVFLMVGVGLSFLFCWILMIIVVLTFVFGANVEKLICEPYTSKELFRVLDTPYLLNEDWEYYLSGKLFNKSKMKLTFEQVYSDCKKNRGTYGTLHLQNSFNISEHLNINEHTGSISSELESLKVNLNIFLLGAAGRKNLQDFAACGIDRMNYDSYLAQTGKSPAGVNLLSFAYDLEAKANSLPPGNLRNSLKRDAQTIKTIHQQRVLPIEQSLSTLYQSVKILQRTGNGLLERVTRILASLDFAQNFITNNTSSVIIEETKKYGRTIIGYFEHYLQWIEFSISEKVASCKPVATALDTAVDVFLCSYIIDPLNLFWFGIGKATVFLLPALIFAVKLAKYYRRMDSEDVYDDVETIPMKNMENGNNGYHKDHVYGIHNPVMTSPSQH
Experiment: surface plasmon resonance (SPR), single-site fit, […] PA
Assay type: binding

Kd: 7.25 µM
Compound: COc1ccc(C(=O)CCNC(C)=O)c(N)c1 [PA, pegaharoline A]
